Reference: patent US11564920B2, “5-heteroaryl-1H-pyrazol-3-amine derivative” (Sumitomo Pharma Co., Ltd., priority 2020, dated 2023)

Columns and labels:
CHK1 = CHK1 (Homo sapiens (Human), UniProt O14757); assay: CHK1 inhibitory activity test (IMAP TR-FRET); format: biochemical; details: for effect of suppressing CHK1 activity (in words): compared with prexasertib; for inhibition at 0.0001 µM: read-out: CHK1 inhibition % at 0.1 nM
Protocol: IMAP TR-FRET Screening Express Kit (R8160) was obtained from Molecular Devices. […] FAM-PKAtide (R7255, Molecular Devices) and FAM-Phospho-PKAtide (R7304, Molecular Devices) were admixed after dilution, and calibration standard systems for phosphorylation levels from 0 to 100% were created. 5 μL of a compound dissolved in a 0.4% DMSO solution was added to a 384 well plate. A compound study group to which 5 μL of each of CHK1, CHK1tide, and ATP was added, and a standard group to which 20 μL of standard was added were created, and subjected to a kinase reaction for 3 hours at 30° C. Subsequently, 60 μL of Binding Reagent (80% Buffer A, 20% Buffer B, 1:600 Binding Reagent, 1:400 Tb-Donor) was added for a binding reaction for 2 hours at room temperature.

ES-2 cells = assay: Cell growth suppression experiment; format: cell-based; details: for IC50: Homo sapiens, 48 h, cultured for 2 days, read-out: IC50 (cell growth suppression, ranking); for cell growth suppression effect (in words): compared with prexasertib
Protocol: ES-2 cells were obtained from the American Type Culture Collection (ATCC). These cells were cultured at 37° C. in the presence of 5% CO2 in a 10% fetal bovine serum, […] penicillin/streptomycin containing McCoy's 5a medium.
500 cells were seeded for each well in a 384-well plate, and the evaluated compound was added so that the final concentration of DMSO would be 0.1% to culture the cells for 2 days. After completion of the culture, the cell viability rate was calculated using CellTiter-Glo® 3D Reagent (Promega, G968B).

Chain of CHK1 (O14757 whole entry): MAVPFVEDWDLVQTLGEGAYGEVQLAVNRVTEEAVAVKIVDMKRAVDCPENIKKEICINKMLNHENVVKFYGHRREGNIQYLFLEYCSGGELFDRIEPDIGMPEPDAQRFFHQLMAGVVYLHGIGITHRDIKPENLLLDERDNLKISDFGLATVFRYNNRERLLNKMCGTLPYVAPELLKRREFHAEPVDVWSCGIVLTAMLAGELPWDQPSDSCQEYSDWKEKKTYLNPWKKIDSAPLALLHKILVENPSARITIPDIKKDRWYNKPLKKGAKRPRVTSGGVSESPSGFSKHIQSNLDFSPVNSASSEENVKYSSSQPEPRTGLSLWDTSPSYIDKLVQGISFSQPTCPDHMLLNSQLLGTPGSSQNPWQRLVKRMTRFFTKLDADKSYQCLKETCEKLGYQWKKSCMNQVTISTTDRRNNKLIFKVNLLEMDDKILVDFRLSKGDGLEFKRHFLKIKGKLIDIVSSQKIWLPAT

## N#Cc1cnc(Nc2cc(-c3c(OCF)cncc3OCCCN)[nH]n2)cn1 [Example 24, 5-({5-[3-(3-aminopropoxy)-5-(fluoromethoxy)pyridin-4-yl]-1H-pyrazol-3-yl}amino)pyrazine-2-carbonitrile]
CHK1
  effect of suppressing CHK1 activity (in words): more potent effect of suppressing CHK1 activity than prexasertib
  inhibition at 0.0001 µM: 23%
ES-2 cells
  IC50: 300 to 1000 nM

## COc1cncc(OCC2(C(F)F)CNC2)c1-c1cc(Nc2cnc(C#N)cn2)n[nH]1 [Example 26, 5-{[5-(3-{[3-(difluoromethyl)azetidin-3-yl]methoxy}-5-methoxypyridin-4-yl)-1H-pyrazol-3-yl]amino}pyrazine-2-carbo nitrile]
CHK1
  effect of suppressing CHK1 activity (in words): more potent effect of suppressing CHK1 activity than prexasertib
  inhibition at 0.0001 µM: 42%
ES-2 cells
  IC50: < 30 nM
  cell growth suppression effect (in words): excellent cell growth suppression effect that is equivalent to that of prexasertib

## COc1ccnc(OCCCN)c1-c1cc(Nc2cnc(Cl)cn2)n[nH]1 [Example 15, N-{5-[2-(3-aminopropoxy)-4-methoxypyridin-3-yl]-1H-pyrazol-3-yl}-5-chloropyrazin-2-amine]
CHK1
  effect of suppressing CHK1 activity (in words): more potent effect of suppressing CHK1 activity than prexasertib
  inhibition at 0.0001 µM: 29%
ES-2 cells
  IC50: < 30 nM
  cell growth suppression effect (in words): excellent cell growth suppression effect that is equivalent to that of prexasertib

## CNCCCOc1cncc(OC)c1-c1cc(Nc2cnc(C#N)cn2)n[nH]1 [Example 31, 5-[(5-{3-methoxy-5-[3-(methylamino)propoxy]pyridin-4-yl}-1H-pyrazol-3-yl)amino]pyrazine-2-carbonitrile]
CHK1
  inhibition at 0.0001 µM: < 5%
ES-2 cells
  IC50: < 30 nM
  cell growth suppression effect (in words): excellent cell growth suppression effect that is equivalent to that of prexasertib

## COc1cncc(OC[C@H]2CCNC2)c1-c1cc(Nc2cnc(C#N)cn2)n[nH]1 [Example 21, (S)-5-[(5-{3-methoxy-[5-(pyrrolidin-3-yl)methoxy]pyridin-4-yl}-1H-pyrazol-3-yl)amino]pyrazine-2-carbonitrile]
CHK1
  effect of suppressing CHK1 activity (in words): more potent effect of suppressing CHK1 activity than prexasertib
  inhibition at 0.0001 µM: 15%
ES-2 cells
  IC50: < 30 nM
  cell growth suppression effect (in words): excellent cell growth suppression effect that is equivalent to that of prexasertib

## COc1cncc(OCC2CNC2)c1-c1cc(Nc2cnc(C#N)cn2)n[nH]1 [Example 18, 5-({5-[3-(azetidin-3-yl)methoxy-5-methoxypyridin-4-yl]-1H-pyrazol-3-yl}amino)pyrazine-2-carbonitrile]
CHK1
  effect of suppressing CHK1 activity (in words): more potent effect of suppressing CHK1 activity than prexasertib
  inhibition at 0.0001 µM: < 5%
ES-2 cells
  IC50: 30 to 100 nM

## COc1cncc(O[C@H](C)C2(O)CNC2)c1-c1cc(Nc2cnc(C#N)cn2)n[nH]1 [Example 34, 5-[(5-{3-[(1R)-1-(3-hydroxyazetidin-3-yl)ethoxy]-5-methoxypyridin-4-yl}-1H-pyrazol-3-yl)amino]pyrazine-2-carbonitrile]
CHK1
  inhibition at 0.0001 µM: < 5%
ES-2 cells
  IC50: > 1000 nM

## COc1cncc(OCC2(F)CNC2)c1-c1cc(Nc2cnc(C#N)cn2)n[nH]1 [Example 5, 5-[(5-{3-[(3-fluoroazetidin-3-yl)methoxy]-5-methoxypyridin-4-yl}-1H-pyrazol-3-yl)amino]pyrazine-2-carbonitrile]
CHK1
  inhibition at 0.0001 µM: 15%
ES-2 cells
  IC50: < 30 nM

## COc1cncc(OCC2(C)CNC2)c1-c1cc(Nc2cnc(C#N)cn2)n[nH]1 [Example 25, 5-[(5-{3-methoxy-5-[(3-methylazetidin-3-yl)methoxy]pyridin-4-yl}-1H-pyrazol-3-yl)amino]pyrazine-2-carbonitrile]
CHK1
  inhibition at 0.0001 µM: < 5%
ES-2 cells
  IC50: < 30 nM
  cell growth suppression effect (in words): excellent cell growth suppression effect that is equivalent to that of prexasertib

## CN[C@@H]1CC[C@@H](Oc2cncc(OC)c2-c2cc(Nc3cnc(C#N)cn3)n[nH]2)C1 [Example 35, 5-{[5-(3-methoxy-5-{[(1R,3R)-3-(methylamino)cyclopentyl]oxy}pyridin-4-yl)-1H-pyrazol-3-yl]amino}pyrazine-2-carbonitrile]
CHK1
  inhibition at 0.0001 µM: < 5%
ES-2 cells
  IC50: < 30 nM
  cell growth suppression effect (in words): excellent cell growth suppression effect that is equivalent to that of prexasertib

## COc1ncnc(OCCCN)c1-c1cc(Nc2cnc(C#N)cn2)n[nH]1 [Example 17, 5-({5-[4-(3-aminopropoxy)-6-methoxypyrimidin-5-yl]-1H-pyrazol-3-yl}amino)pyrazine-2-carbonitrile]
CHK1
  IC50: 0.3 nM
  effect of suppressing CHK1 activity (in words): more potent effect of suppressing CHK1 activity than prexasertib
  inhibition at 0.0001 µM: 24%
ES-2 cells
  IC50: < 30 nM
  cell growth suppression effect (in words): excellent cell growth suppression effect that is equivalent to that of prexasertib

## COc1nccc(OCC2(CN)CC2)c1-c1cc(Nc2cnc(C#N)cn2)n[nH]1 [Example 38, 5-{[5-(4-{[1-(aminomethyl)cyclopropyl]methoxy}-2-methoxypyridin-3-yl)-1H-pyrazol-3-yl]amino}pyrazine-2-carbonitrile]
CHK1
  inhibition at 0.0001 µM: < 5%
ES-2 cells
  IC50: < 30 nM
  cell growth suppression effect (in words): excellent cell growth suppression effect that is equivalent to that of prexasertib

## COc1nccc(OCCCN)c1-c1cc(Nc2cnc(C#N)cn2)n[nH]1 [Example 4, 5-({5-[4-(3-aminopropoxy)-2-methoxypyridin-3-yl]-1H-pyrazol-3-yl}amino)pyrazine-2-carbonitrile]
CHK1
  effect of suppressing CHK1 activity (in words): more potent effect of suppressing CHK1 activity than prexasertib
  inhibition at 0.0001 µM: 25%
ES-2 cells
  IC50: < 30 nM
  cell growth suppression effect (in words): excellent cell growth suppression effect that is equivalent to that of prexasertib

## COc1cncc(O[C@@H]2CCC[C@H](N)C2)c1-c1cc(Nc2cnc(C#N)cn2)n[nH]1 [Example 19, 5-{[5-(3-{[(1R,3S)-3-aminocyclohexyl]oxy}-5-methoxypyridin-4-yl)-1H-pyrazol-3-yl]amino}pyrazine-2-carbonitrile]
CHK1
  effect of suppressing CHK1 activity (in words): more potent effect of suppressing CHK1 activity than prexasertib
  inhibition at 0.0001 µM: 20%
ES-2 cells
  IC50: < 30 nM
  cell growth suppression effect (in words): excellent cell growth suppression effect that is equivalent to that of prexasertib

## COc1cncc(O[C@H]2C[C@H](N)[C@H]3C[C@H]32)c1-c1cc(Nc2cnc(C#N)cn2)n[nH]1 [Example 36, 5-{[5-(3-{[(1R,2S,4S,5S)-4-aminobicyclo[3.1.0]hexan-2-yl]oxy}-5-methoxypyridin-4-yl)-1H-pyrazol-3-yl]amino}pyrazine-2-carbonitrile]
CHK1
  inhibition at 0.0001 µM: < 5%
ES-2 cells
  IC50: < 30 nM
  cell growth suppression effect (in words): excellent cell growth suppression effect that is equivalent to that of prexasertib

## COc1cncc(OC[C@@H](O)CN)c1-c1cc(Nc2cnc(C#N)cn2)n[nH]1 [Example 14, 5-[(5-{3-[(2S)-3-amino-2-hydroxypropoxy]-5-methoxypyridin-4-yl}-1H-pyrazol-3-yl)amino]pyrazine-2-carbonitrile]
CHK1
  effect of suppressing CHK1 activity (in words): more potent effect of suppressing CHK1 activity than prexasertib
  inhibition at 0.0001 µM: 30%
ES-2 cells
  IC50: 300 to 1000 nM

## COc1cncc(O[C@H](C)C2CNC2)c1-c1cc(Nc2cnc(C#N)cn2)n[nH]1 [Example 33, 5-[(5-{3-[(1R)-1-(azetidin-3-yl)ethoxy]-5-methoxypyridin-4-yl}-1H-pyrazol-3-yl)amino]pyrazine-2-carbonitrile]
CHK1
  inhibition at 0.0001 µM: < 5%
ES-2 cells
  IC50: < 30 nM
  cell growth suppression effect (in words): excellent cell growth suppression effect that is equivalent to that of prexasertib

## COc1cncc(OC[C@H](C)CN)c1-c1cc(Nc2cnc(C#N)cn2)n[nH]1 [Example 28]
CHK1
  inhibition at 0.0001 µM: < 5%
ES-2 cells
  IC50: < 30 nM

## COc1cncc(OCCCN)c1-c1cc(Nc2cnc(C#N)cn2)n[nH]1 [Example 3, 5-({5-[3-(3-aminopropoxy)-5-methoxypyridin-4-yl]-1H-pyrazol-3-yl}amino)pyrazine-2-carbonitrile]
CHK1
  effect of suppressing CHK1 activity (in words): more potent effect of suppressing CHK1 activity than prexasertib
  inhibition at 0.0001 µM: 28%
ES-2 cells
  IC50: < 30 nM
  cell growth suppression effect (in words): excellent cell growth suppression effect that is equivalent to that of prexasertib

## COc1cc(Cl)nc(OCCCN)c1-c1cc(Nc2cnc(C#N)cn2)n[nH]1 [Example 2, 5-({5-[2-(3-aminopropoxy)-6-chloro-4-methoxypyridin-3-yl]-1H-pyrazol-3-yl}amino)pyrazine-2-carbonitrile]
CHK1
  effect of suppressing CHK1 activity (in words): more potent effect of suppressing CHK1 activity than prexasertib
  inhibition at 0.0001 µM: 31%
ES-2 cells
  IC50: 30 to 100 nM

## COc1cncc(O[C@@H]2CC[C@@H](N)C2)c1-c1cc(Nc2cnc(C#N)cn2)n[nH]1 [Example 32, 5-{[5-(3-{[(1R,3R)-3-aminocyclopentyl]oxy}-5-methoxypyridin-4-yl)-1H-pyrazol-3-yl]amino}pyrazine-2-carbonitrile]
ES-2 cells
  IC50: < 30 nM
  cell growth suppression effect (in words): excellent cell growth suppression effect that is equivalent to that of prexasertib
